The values below are quoted from earlier work in article PMC2988205 (Medicinal Chemistry Research, 2009).

The data set deals with β3-AR. The conditions noted are these: read-out: β3 EC50; β3-AR partial agonist; ref Naylor et al., 1998.

On to `C[C@H](Cc1ccc(OCC(=O)O)cc1)NC[C@H](O)c1cccc(Cl)c1` [BRL-37344], for which the EC50 – broadly, the concentration at which the effect is half-maximal – is 450 nM.
